Measured values as given in publication PMC6309140, “Synthesis and Evaluation of a New Type of Small Molecule Epigenetic Modulator Containing Imidazo[1,2-b][1,2,4]triazole Motif” (Frontiers in Chemistry, 2018).
Entries after “also recorded” stand apart in the source; their conditions may differ. Read-outs that look alike come from different tables or passages of the source.

Experiments:
[1] = system: EGFP reporter gene silenced by DNA methylation (B2-17 cells); experiment: Compound effective assay: derepression of EGFP reporter in B2-17 reporter cells (image-based, titration); format: cell-based; conditions: for Maximal RGFP% (maximal percentage of EGFP+ cells in the dose-response curve) / Emax / EC50: B2-17 cells, 72 h treatment; for activity of derepressing the EGFP reporter gene silenced by DNA methylation (in words): compared with hit compound LX-3; for Emax: 72 h, read-out: Maximal RGFP% (maximal percentage of EGFP+ cells in the dose-response curve); for EC50: dose-response of EGFP+ cells, read-out: EC50 (relative half maximal effect concentration)
Description: (§1) To identify novel small molecules targeting gene repression, we devised an image-based high-throughput screening system using the engineered HEK 293 F cell (termed as B2-17 cells) as report cell line. A chemical library containing 308,251 small molecules was screened in this system. Purposed for unbiased compound screening, this library had been used in a variety of studies (Sun et al., [2012]; Wang et al., [2013]; Dong et al., [2015]; Li et al., [2016]). Hundred and fifty eight compounds which reactivated reporter genes in more than half of cells were selected as hits. Next, we performed titration experiments for all these hits in the B2-17 cell line. The efficacy of each compound was evaluated by its maximal percentage of EGFP^+ cells in the dose-response curve (maximal RGFP) and relative half maximal effect concentration (EC50). The toxicity of the hits was also tested in parallel, measured by number of viable cells in each treatment. The assay is based on quantitative analysis of ATP, an indicator of metabolically active cells. For each compound, we calculated the relative half maximal growth inhibitory concentration (IC50), based on the abovementioned assay.
Procedure for cell culture and establishment of the reporter cell line were reported in our previously published paper (Li et al., [2018]).
Before plating cells, 384-well plates (ViewPlate, PerkinElmer) were coated with PDL (poly-D-lysine, Sigma). For each well, 1,300 B2-17 cells were plated by using a Matrix Wellmate microplate dispenser (Thermo Scientific). Then, 0.25 μL of compound was added to each well by using a versatile pipetting robot, the Biomek FX workstation (Beckman Coulter), to give a final compound concentration of 5 μM. After treatment for 72 h, the cell nuclei were stained by Hoechst 33342 (Sigma) before imaging.
The cells were imaged with Opera LX (PerkinElmer, three views per well by using 10 x (air) objective lens). Images were analyzed with the Columbus system, the mean percentage of EGFP+ cells (RGFP) was obtained to extrapolate the number of EGFP expressing cells and Hoechst-stained nuclei.
For the titration assay, the positive compounds were diluted in DMSO at concentrations ranging from 0.625 to 4 mM. Then, the B2-17 cells were treated by gradient compound and imaged as described before.
For each compound, a dose-response series was generated by using Origin 6.0 Pro software. The dot plot was fit by a DoseResp curve and then the EC50 was calculated.

HEK 293 F cells = experiment: Viability assays (CellTiter-Glo, ATP); format: cell-based; conditions: for IC50: viable cells by ATP quantitation, 3 days incubation, Figure 2 says B2-17 cells, method says HEK 293 F cells, read-out: IC50 (relative half maximal growth inhibitory concentration)
Description: as §1
HEK 293 F cells were plated in 384-well, flat-bottom, tissue culture dishes (Corning) and treated with compounds, incubated 3 days, and assayed for viability using the CellTiter-Glo Luminescent Cell Viability Assay (Promega) according to the manufacturer's protocol. The […] with an EnSight plate reader (Perkin Elmer). Data were normalized to the untreated control (100% viability). Each treatment was tested in two independent assays, each containing 3 replicates. The titration-viability curves of each compound were also generated by using Origin 6.0 Pro software.

Compound | Maximal RGFP% (maximal percentage of EGFP+ cells in the dose-response curve) [1] | activity of derepressing the EGFP reporter gene silenced by DNA methylation (in words) [1] | IC50 (HEK 293 F cells) | Emax [1] | IC50 (HEK 293 F cells; HEK293F, 72 h) | EC50 [1] | toxicity (in words) (HEK 293 F cells; compared with hit compound LX-3)
2-(4-bromophenyl)-1-(2-(thiazol-2-yl)-4H-benzo[4,5] imidazo[1,2-b][1,2,4]triazol-4-yl)ethan-1-one [31b] | 6.0% | loss of activity | 11.5 µM |  |  |  | 
3-(4-bromophenyl)-1-(2-(thiazol-2-yl)-4H-benzo[4,5] imidazo[1,2-b][1,2,4]triazol-4-yl)propan-1-one [31c] | 9.0% | loss of activity | 15.9 µM |  |  |  | 
O=C(Cn1c2ccccc2n2nc(-c3cccs3)nc12)c1ccccc1 [7a, 1-phenyl-2-(2-(thiophen-2-yl)-4H-benzo[4,5]imidazo[1,2-b][1,2,4]triazol-4-yl)ethan-1-one] |  | lost |  | 7% | 1.9 µM |  | 
COc1ccc(C(=O)Cn2c3ccccc3n3nc(-c4cccs4)nc23)cc1 [7b, 1-(4-methoxyphenyl)-2-(2-(thiophen-2-yl)-4H-benzo[4,5]imidazo[1,2-b][1,2,4]triazol-4-yl)ethan-1-one] |  | decreased to some extent |  | 23% | 3.1 µM | 6.2 µM | 
O=C(Cn1c2ccccc2n2nc(-c3cccs3)nc12)c1ccc([N+](=O)[O-])cc1 [7c, 1-(4-nitrophenyl)-2-(2-(thiophen-2-yl)-4H-benzo[4,5]imidazo[1,2-b][1,2,4]triazol-4-yl)ethan-1-one] |  | decreased to some extent |  | 41% | 11.9 µM | 14.9 µM | 
COC(=O)c1ccc(C(=O)Cn2c3ccccc3n3nc(-c4cccs4)nc23)cc1 [7d, methyl 4-(2-(2-(thiophen-2-yl)-4H-benzo[4,5]imidazo[1,2-b][1,2,4]triazol-4-yl)acetyl)benzoate] |  | significantly increased; also recorded: slightly better activity |  | 73% | 10.2 µM | 2.4 µM | less toxicity
O=C(Cn1c2ccccc2n2nc(-c3cccs3)nc12)c1ccc(C(F)(F)F)cc1 [7e, 2-(2-(thiophen-2-yl)-4H-benzo[4,5]imidazo[1,2-b][1,2,4]triazol-4-yl)-1-(4-(trifluoromethyl)phenyl)ethan-1-one] |  | remained the same |  | 81% | 4.7 µM | 3.7 µM | 
O=C(Cn1c2ccccc2n2nc(-c3cccs3)nc12)c1ccc(F)cc1F [7f, 1-(2,4-difluorophenyl)-2-(2-(thiophen-2-yl)-4H-benzo[4,5]imidazo[1,2-b][1,2,4]triazol-4-yl)ethan-1-one] |  | significantly decreased |  | 16% | 17.8 µM |  | 
O=C(Cn1c2ccccc2n2nc(-c3cccs3)nc12)c1c(F)c(F)c(F)c(F)c1F [7g, 1-(perfluorophenyl)-2-(2-(thiophen-2-yl)-4H-benzo[4,5]imidazo[1,2-b][1,2,4]triazol-4-yl)ethan-1-one] |  | significantly decreased |  | 10% | 1.1 µM |  | 
O=C(Cn1c2ccccc2n2nc(-c3cccs3)nc12)c1ccc(O)cc1 [7h, 1-(4-hydroxyphenyl)-2-(2-(thiophen-2-yl)-4H-benzo[4,5]imidazo[1,2-b][1,2,4]triazol-4-yl)ethan-1-one] |  | decreased to some extent |  | 56% | 16.7 µM | 5.8 µM | 
Nc1ccc(C(=O)Cn2c3ccccc3n3nc(-c4cccs4)nc23)cc1 [7i, 1-(4-aminophenyl)-2-(2-(thiophen-2-yl)-4H-benzo[4,5]imidazo[1,2-b][1,2,4]triazol-4-yl)ethan-1-one] |  | decreased to some extent |  | 19% | 5.3 µM |  | 
O=C(O)c1ccc(C(=O)Cn2c3ccccc3n3nc(-c4cccs4)nc23)cc1 [7j, 4-(2-(2-(thiophen-2-yl)-4H-benzo[4,5]imidazo[1,2-b][1,2,4]triazol-4-yl)acetyl)benzoic acid] |  | decreased to some extent |  | 7% | 4.8 µM |  | 
O=C(Cn1c2ccccc2n2nc(-c3cccs3)nc12)c1nccs1 [9a, 1-(thiazol-2-yl)-2-(2-(thiophen-2-yl)-4H-benzo[4,5]imidazo[1,2-b][1,2,4]triazol-4-yl)ethan-1-one] |  |  |  | 30% | 8.7 µM | 4.7 µM | 
O=C(Cn1c2ccccc2n2nc(-c3cccs3)nc12)c1ccco1 [9b, 1-(furan-2-yl)-2-(2-(thiophen-2-yl)-4H-benzo[4,5]imidazo[1,2-b][1,2,4]triazol-4-yl)ethan-1-one] |  |  |  | 6.6% |  |  | 
O=C(Cn1c2ccccc2n2nc(-c3cccs3)nc12)c1cccs1 [9c, 1-(thiophen-2-yl)-2-(2-(thiophen-2-yl)-4H-benzo[4,5]imidazo[1,2-b][1,2,4]triazol-4-yl)ethan-1-one] |  |  |  | 40% | 4.9 µM | 2.3 µM | 
O=C(Cn1c2ccccc2n2nc(-c3cccs3)nc12)c1ccncc1 [9d, 1-(pyridin-4-yl)-2-(2-(thiophen-2-yl)-4H-benzo[4,5]imidazo[1,2-b][1,2,4]triazol-4-yl)ethan-1-one] |  |  |  | 35% | 6.5 µM | 13.6 µM | 
Cc1cc2c(cc1C)n1nc(-c3cccs3)nc1n2CC(=O)c1ccc(Br)cc1 [14a, 1-(4-bromophenyl)-2-(6,7-dimethyl-2-(thiophen-2-yl)-4H-benzo[4,5]imidazo[1,2-b][1,2,4]triazol-4-yl)ethan-1-one] |  | significantly decreased |  | 26% | 3.9 µM | 28 µM | 
O=C(Cn1c2ccc(Br)cc2n2nc(-c3cccs3)nc12)c1ccc(Br)cc1 [17a, 2-(7-bromo-2-(thiophen-2-yl)-4H-benzo[4,5]imidazo[1,2-b][1,2,4]triazol-4-yl)-1-(4-bromophenyl)ethan-1-one] |  | significantly decreased |  | 41% | 6.6 µM | 19.4 µM | 
O=C(Cn1c2ccc(Br)cc2n2nc(-c3ccc(Br)s3)nc12)c1ccc(Br)cc1 [17c, 2-(7-bromo-2-(5-bromothiophen-2-yl)-4H-benzo[4,5]imidazo[1,2-b][1,2,4]triazol-4-yl)-1-(4-bromophenyl)ethan-1-one] |  |  |  | 28% | 3.8 µM | 21.8 µM | 
O=C(Cn1c2ccccc2n2nc(-c3ccccc3)nc12)c1ccc(Br)cc1 [22a, 1-(4-bromophenyl)-2-(2-phenyl-4H-benzo[4,5]imidazo[1,2-b][1,2,4]triazol-4-yl)ethan-1-one] |  | decreased significantly or even disappeared |  | 6% | 4.4 µM |  | 
CC(C)(C)c1nc2n(CC(=O)c3ccc(Br)cc3)c3ccccc3n2n1 [22g, 1-(4-bromophenyl)-2-(2-(tert-butyl)-4H-benzo[4,5]imidazo[1,2-b][1,2,4]triazol-4-yl)ethan-1-one] |  |  |  |  | 8.3 µM |  | 
N#Cc1ccc(-c2nc3n(CC(=O)c4ccc(Br)cc4)c4ccccc4n3n2)s1 [compound 27, 5-(4-(2-(4-bromophenyl)-2-oxoethyl)-4H-benzo[4,5]imidazo[1,2-b][1,2,4]triazol-2-yl)thiophene-2-carbonitrile] |  | significant decrease or disappearance |  | 6% |  |  | 
